Test [1] addresses T1, BACE1 (Homo sapiens (Human), UniProt P56817). The test is described as follows: BACE1 AlphaScreen assay (displacement of biotinylated BACE1 binding site probe). Particulars: read-out: BACE1 AS IC50. As for the experimental part: (§1) BACE1 activity can be assessed in an AlphaScreen® assay. Compounds to be assessed (e.g. compounds as described in the above examples) are serially diluted 1:4 in DMSO, then plated by diluting 10 μL of compound with 40 μl of assay buffer (1×PBS, 0.01% Tween-20, pH 7.0, 0.05% BSA). The diluted compound is transferred (4 μL per well) to a 386 well assay plate and 4 μL of BACE1 enzyme ([…]) is added and incubated for 15 minutes. This assay uses a probe that is a BACE1 binding sight ligand linked to biotin, which can be displaced by test compound dependent on compound binding affinity. This of biotinylated probe (4 μL) is added and incubated for 1 hour, followed with 4 μL of donor and acceptor bead mixture and incubated for 2 hours. The fluorescent signal is read on a plate reader and the value as a function of compound concentration is used to determine the IC50. Compounds are also assessed for BACE1 and Cathepsin D activity using an FP Assay. Compounds to be assessed (e.g. compounds as described in the above examples) are serially diluted 1:3 with DMSO and each concentration point is transferred to a 96 well plate, 6 μL per well, followed by addition of 194 μL of assay buffer (100 mM sodium acetate, pH 4.5 with 0.001% Tween-20). A 10 μL compound sample from this plate is transferred to a well of a 384 well plate and combined with 10 μL per well of BACE1 enzyme (0.3 nM in assay buffer) or Cathepsin D enzyme (1.8 nM in assay buffer) and the plate is incubated at room temperature for 30 minutes.
On the technique in general: Bead proximity is the source of the signal in Alpha formats.

Test [2] concerns the target T1, BACE1. The test is described as follows: BACE1 FP assay. The class given is biochemical. Particulars: pH 4.5. As to the method: as §1
In the next test the target is Cathepsin D (Homo sapiens (Human), UniProt P07339). Kind of test: Cathepsin D FP assay. In kind it is biochemical. Particulars: pH 4.5, read-out: CatD FP IC50. As to the method:
as §1

In test [3] the test system is BACE1 inhibition in HEKp293 cells transfected with APP751 gene (SWE293). The test is described as follows: SWE293 cellular assay: reduction of Aβ peptide production, ELISA. The class given is cell-based. Particulars: Homo sapiens, read-out: SWE293 ED50. As for the experimental part: BACE1 inhibition is also assessed in a cellular assay. HEKp293 cells transfected with APP751 gene (SWE293, American Type Culture Collection CRL-1563) are used to assess compounds for reduction in levels of Aβ peptide production. SWE293 cell medium is DMEM supplemented with 10% fetal bovine serum and 2 mM L-glutamine, 1.0 mM sodium pyruvate, 25 mM Hepes Buffer, 0.4 mg/mL geneticin (G418, Gibco BRL 860-181IIJ). Cells are maintained diluting 1:10 for 4 days in T-150 flask and 35 mL of cell media. For plating, cells are rinsed with 5 mL of 1×PBS, trypsinized with 4 mL of 0.05% Tripsin for 1 minute, and 12 mL of cell media is added. These are centrifuged at 1000 rpm for 4 minutes and the media aspirated, then 8 mL of media per flask is added. Based on cell count, appropriate amounts of cell and cell media are combined, and 180 μl per well are plated (96 well) and the plates are incubated overnight at 37° C., 5% CO2. Compounds to be tested are serially diluted 1:3 in DMSO and twice in media (without G418) in V-bottom plates and incubated at room temperature. Plated cells are washed with media, 3×50 μL per well and 17 μL per well of appropriate dilution of compound is added. Plates are incubated for 2 hours, and the wash steps, compound addition and incubation are repeated. Sample is transferred to capture plate (prepared with 266 antibody, see e.g. Johnson-Wood et al., PNAS February 1997, 94: 1550-1555), along with a standard curve of Aβ-40. ELISA assay is used to assess Aβ levels, washing with TBS, 0.05% Tween20 pH 7.5, then adding 1.3 mg/mL 3D6 antibody 1:900 in specimen diluents with thimericol is added (100 μl per well) and incubated for 1 hour. Wash step is repeated and Streptavidin-AP diluted 1:1000 in specimen diluents with thimerisol is added (100 μL per well) and incubated for 1 hour. Wash step is repeated and fluorescent substrate is added, 100 μL per well and incubated for 10 minutes followed by reading the fluorescent signal on a plate reader.

[4] abbreviates: dose at which Aβ level is reduced by 50%, HEKp293 SWE293 cells.

Read-outs that look alike come from different tables or passages of the source.

Cathepsin D, sequence (P07339 65-412, species assumed): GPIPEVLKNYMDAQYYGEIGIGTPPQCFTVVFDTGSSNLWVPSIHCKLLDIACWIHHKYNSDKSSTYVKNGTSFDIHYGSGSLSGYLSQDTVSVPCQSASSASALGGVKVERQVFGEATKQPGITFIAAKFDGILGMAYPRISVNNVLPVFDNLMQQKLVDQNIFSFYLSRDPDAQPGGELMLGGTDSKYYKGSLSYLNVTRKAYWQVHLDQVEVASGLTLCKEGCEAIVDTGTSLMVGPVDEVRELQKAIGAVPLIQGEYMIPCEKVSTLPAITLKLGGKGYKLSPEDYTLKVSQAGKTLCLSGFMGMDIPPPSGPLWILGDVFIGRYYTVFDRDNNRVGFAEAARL
T1 sequence (P56817 46-501): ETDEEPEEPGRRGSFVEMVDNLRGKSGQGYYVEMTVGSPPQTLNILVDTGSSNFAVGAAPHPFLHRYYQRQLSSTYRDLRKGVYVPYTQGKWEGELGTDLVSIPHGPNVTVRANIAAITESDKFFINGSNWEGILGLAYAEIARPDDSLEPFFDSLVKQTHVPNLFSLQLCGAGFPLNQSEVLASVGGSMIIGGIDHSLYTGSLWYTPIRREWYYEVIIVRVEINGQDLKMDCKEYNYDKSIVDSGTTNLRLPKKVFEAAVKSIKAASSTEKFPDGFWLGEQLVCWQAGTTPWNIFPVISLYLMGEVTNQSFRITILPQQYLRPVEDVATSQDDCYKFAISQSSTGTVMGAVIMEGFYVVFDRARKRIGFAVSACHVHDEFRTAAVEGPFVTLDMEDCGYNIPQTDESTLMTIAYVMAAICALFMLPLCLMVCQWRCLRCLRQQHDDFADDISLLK

Turning to `CC1(c2cc(NC(=O)c3ccc(F)cn3)ccc2F)CC2(CCC2)OC(N)=N1` (stereo not drawn) [Compound 9-125, N-(3-(6-amino-8-methyl-5-oxa-7-azaspiro[3.5]non-6-en-8-yl)-4-fluorophenyl)-5-fluoropicolinamide], the IC50 on BACE1 [1] was 0.029 µM; on BACE1 [2], 0.366 µM; on Cathepsin D, more than 30 µM; in test [3] (setting [4]) it was 0.067 µM.
The corresponding values for `CC#Cc1cncc(-c2csc(C3(C)CC4(CCC(F)(F)CC4)OC(N)=N3)c2)c1` (stereo not drawn) [Compound 8-109, 9,9-difluoro-4-methyl-4-(4-(5-(prop-1-ynyl)pyridin-3-yl)thiophen-2-yl)-1-oxa-3-azaspiro[5.5]undec-2-en-2-amine] are 0.068 µM, 1.16 µM, 6.29 µM and 0.621 µM.
Regarding `CC1(c2cc(NC(=O)c3ccc(F)cn3)ccc2F)CC2(CCCCC2)SC(N)=N1` (stereo not drawn) [Compound 9-142, N-(3-(2-amino-4-methyl-1-thia-3-azaspiro[5.5]undec-2-en-4-yl)-4-fluorophenyl)-5-fluoropicolinamide], the IC50 in test [3] (setting [4]) worked out at 0.012 µM.
As for `CC#Cc1cncc(-c2csc([C@]3(C)CC4(CCC(F)(F)CC4)OC(N)=N3)c2)c1` [Compound 8-110, (S)-9,9-difluoro-4-methyl-4-(4-(5-(prop-1-ynyl)pyridin-3-yl)thiophen-2-yl)-1-oxa-3-azaspiro[5.5]undec-2-en-2-amine], the IC50 on BACE1 [1] amounted to 0.026 µM; on BACE1 [2] it was 0.96 µM; at Cathepsin D it was 5.57 µM; in test [3] (setting [4]), 0.305 µM.
Consider `COc1cnc(C(=O)Nc2ccc(F)c(C3(C)N=C(N)OC4(CCC4)C3(F)F)c2)cn1` (stereo not drawn) [Compound 9-164, N-(3-(6-amino-9,9-difluoro-8-methyl-5-oxa-7-azaspiro[3.5]non-6-en-8-yl)-4-fluorophenyl)-5-methoxypyrazine-2-carboxamide], for which the values for the IC50 (on Cathepsin D; in test [3] (setting [4])) were more than 30 µM and 0.195 µM, respectively.
On to `C[C@@]1(c2cc(/C=C/c3ccc(F)cc3)ccc2F)CC2(CCC2)OC(N)=N1` [Compound 12-177, (S,E)-8-(2-fluoro-5-(4-fluorostyryl)phenyl)-8-methyl-5-oxa-7-azaspiro[3.5]non-6-en-6-amine], for which the IC50 amounted to 1.16 µM at BACE1 [1], 21.7 µM against BACE1 [2] and 1.21 µM in test [3].
Take `CC#Cc1cncc(-c2csc(C3(C)CC4(COC4)SC(N)=N3)c2)c1` (stereo not drawn) [Compound 8-112, 8-methyl-8-(4-(5-(prop-1-ynyl)pyridin-3-yl)thiophen-2-yl)-2-oxa-5-thia-7-azaspiro[3.5]non-6-en-6-amine]: the IC50 at BACE1 [1] was 0.017 µM; on BACE1 [2], 0.227 µM; in test [3] (setting [4]), 0.222 µM.
The corresponding values for `C[C@@]1(c2cc(/C=C/c3ccc(Cl)cc3)ccc2F)CC2(CCC2)OC(N)=N1` [Compound 12-179, (S,E)-8-(5-(4-chlorostyryl)-2-fluorophenyl)-8-methyl-5-oxa-7-azaspiro[3.5]non-6-en-6-amine] are 0.51 µM, 4.64 µM and 1.34 µM.
On to `C[C@@]1(c2cc(Nc3ncnc4cc(Cl)ccc34)ccc2F)CC2(CCC2)OC(N)=N1` [Compound 11-173, (S)-8-(5-(7-chloroquinazolin-4-ylamino)-2-fluorophenyl)-8-methyl-5-oxa-7-azaspiro[3.5]non-6-en-6-amine], for which the IC50 at BACE1 [2] worked out at 8.55 µM; in test [3] (setting [4]), 0.687 µM.
Take `C[C@]1(c2cc(NC(=O)c3ccc(F)cn3)ccc2F)CC2(CCOCC2)SC(N)=N1` [Compound 9-149, (R)—N-(3-(2-amino-4-methyl-9-oxa-1-thia-3-azaspiro[5.5]undec-2-en-4-yl)-4-fluorophenyl)-5-fluoropicolinamide]: the IC50 at BACE1 [1] is more than 1 µM; on BACE1 [2], 8.49 µM; on Cathepsin D, 21.5 µM.
`COc1cnc(C(=O)Nc2ccc(F)c([C@]3(C)CC4(CCOCC4)SC(N)=N3)c2)cn1` [Compound 9-153, (S)—N-(3-(2-amino-4-methyl-9-oxa-1-thia-3-azaspiro[5.5]undec-2-en-4-yl)-4-fluorophenyl)-5-methoxypyrazine-2-carboxamide]: the figures for the IC50 (on BACE1 [2]; at Cathepsin D; in test [3] (setting [4])) were 0.033 µM, more than 30 µM and less than 0.123 µM, respectively.
As to `C[C@@]1(c2cc(NC(=O)c3ccc(C(F)(F)F)cn3)ccc2F)CC2(CCC(F)(F)CC2)OC(N)=N1` [Compound 9-132, (S)—N-(3-(2-amino-9,9-difluoro-4-methyl-1-oxa-3-azaspiro[5.5]undec-2-en-4-yl)-4-fluorophenyl)-5-(trifluoromethyl)picolinamide], the IC50 was determined as 0.006 µM on BACE1 [1] and 0.011 µM in test [3].
For the compound `C[C@@]1(c2cc(NC(=O)c3ccc(C#N)cn3)ccc2F)N=C(N)OC2(CCC2)C1(F)F` [Compound 9-163, (S)—N-(3-(6-amino-9,9-difluoro-8-methyl-5-oxa-7-azaspiro[3.5]non-6-en-8-yl)-4-fluorophenyl)-5-cyanopicolinamide], the IC50 is 13.4 µM at BACE1 [1], 38.1 µM against BACE1 [2] and more than 30 µM in test [3].
The corresponding values for `C[C@@]1(c2cc(NCc3ccc(F)cn3)ccc2F)CC2(CCC2)OC(N)=N1` [Compound 10-169, (S)-8-(2-fluoro-5-((5-fluoropyridin-2-yl)methylamino)phenyl)-8-methyl-5-oxa-7-azaspiro[3.5]non-6-en-6-amine] are 3.72 µM, 179 µM and 5.61 µM.
For the compound `C[C@@]1(c2cc(NC(=O)c3ccc(C4CC4)cn3)ccc2F)CC2(CCC(F)(F)CC2)OC(N)=N1` [Compound 9-137, (S)—N-(3-(2-amino-9,9-difluoro-4-methyl-1-oxa-3-azaspiro[5.5]undec-2-en-4-yl)-4-fluorophenyl)-5-cyclopropylpicolinamide], the IC50 turned out to be 0.017 µM at BACE1 [1], 1.83 µM on BACE1 [2] and 0.088 µM in test [3] (setting [4]).
Take `C[C@@]1(c2cc(NC(=O)c3ccc(F)cn3)ccc2F)N=C(N)OC2(CCOCC2)C1(F)F` [Compound 9-156, (S)—N-(3-(2-amino-5,5-difluoro-4-methyl-1,9-dioxa-3-azaspiro[5.5]undec-2-en-4-yl)-4-fluorophenyl)-5-fluoropicolinamide]: the IC50 (at BACE1 [1]; against BACE1 [2]; in test [3]) was more than 30 µM in each case.
`C[C@]1(c2cc(NC(=O)c3ccc(Cl)cn3)ccc2F)CC2(CCOCC2)SC(N)=N1` [Compound 9-152, (R)—N-(3-(2-amino-4-methyl-9-oxa-1-thia-3-azaspiro[5.5]undec-2-en-4-yl)-4-fluorophenyl)-5-chloropicolinamide]: the IC50 on BACE1 [2] was found to be 1.56 µM; on Cathepsin D, 10.8 µM.
`C[C@@]1(c2cc(NC(=O)C3CC3)ccc2F)CC2(CCC(F)(F)CC2)OC(N)=N1` [Compound 9-134, (S)—N-(3-(2-amino-9,9-difluoro-4-methyl-1-oxa-3-azaspiro[5.5]undec-2-en-4-yl)-4-fluorophenyl)cyclopropanecarboxamide]: the results for the IC50 (on BACE1 [1]; at BACE1 [2]; in test [3] (setting [4])) were 0.801 µM, 2.33 µM and 0.882 µM, respectively.
Consider `COc1cc(Cl)ccc1C(=O)Nc1ccc(F)c([C@]2(C)CC3(CCC3)OC(N)=N2)c1` [Compound 9-140, (S)—N-(3-(6-amino-8-methyl-5-oxa-7-azaspiro[3.5]non-6-en-8-yl)-4-fluorophenyl)-4-chloro-2-methoxybenzamide], for which the IC50 on BACE1 [1] was determined as 0.101 µM; against BACE1 [2] it was 9.11 µM; in test [3] it was 0.342 µM.

Values taken from patent publication US9493485B2, “Spirocyclic dihydro-thiazine and dihydro-oxazine BACE inhibitors, and compositions and uses thereof” (Imago Pharmaceuticals, Inc., priority 2012, dated 2016).
